Measured values from the supplement of paper PMC11061612.

What was measured:
Assay in all cases: Bliss excess, mean over the matrix (fraction); higher = more synergy
[1] = test system: HCC1143 (Breast Carcinoma)
How it was run: (§1)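 Bliss excess equals the observed combination effect minus the expected value EA + EB − EA·EB, where EA and EB are the effects of each agent alone. Combination Emax is the second-highest inhibition within the matrix. Inhibition was scaled from CellTiter-Glo 2.0 luminescence, with 0 set by vehicle wells and 1 by blank wells, after 72 hours of two-drug dosing of cells plated in 1536-well plates.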

MSTO-211H (Mesothelioma) = test system: MSTO-211H (Mesothelioma)
How it was run: as §1

[2] = test system: SNG-M (Endometrial Carcinoma)
How it was run: as §1

[3] = test system: HLE (Hepatocellular Carcinoma)
How it was run: as §1

[4] = test system: RCC10RGB (Kidney Carcinoma)
How it was run: as §1

[5] = test system: NOMO-1 (Acute Myeloid Leukemia)
How it was run: as §1

D-392MG (Glioblastoma) = test system: D-392MG (Glioblastoma)
How it was run: as §1

H4 (Low Grade Glioma) = test system: H4 (Low Grade Glioma)
How it was run: as §1

[6] = test system: SK-LMS-1 (Other Solid Carcinomas)
How it was run: as §1

[7] = test system: 647-V (Bladder Carcinoma)
How it was run: as §1

[8] = test system: GDM-1 (Acute Myeloid Leukemia)
How it was run: as §1

MCF7 (Breast Carcinoma) = test system: MCF7 (Breast Carcinoma)
How it was run: as §1

[9] = test system: HCC-827 (Lung Adenocarcinoma)
How it was run: as §1

[10] = test system: SNU-61 (Colorectal Carcinoma)
How it was run: as §1

[11] = test system: TYK-nu (Ovarian Carcinoma)
How it was run: as §1

A172 (Glioblastoma) = test system: A172 (Glioblastoma)
How it was run: as §1

[12] = test system: YT (Other Blood Carcinomas)
How it was run: as §1

[13] = test system: EFM-192A (Breast Carcinoma)
How it was run: as §1

[14] = test system: SKN-3 (Head and Neck Carcinoma)
How it was run: as §1

[15] = test system: MES-SA (Other Solid Carcinomas)
How it was run: as §1

SMILES	Bliss excess [1]	Bliss excess (MSTO-211H (Mesothelioma))	Bliss excess [2]	Bliss excess [3]	Bliss excess [4]	Bliss excess [5]	Bliss excess (D-392MG (Glioblastoma))	Bliss excess (H4 (Low Grade Glioma))	Bliss excess [6]	Bliss excess [7]	Bliss excess [8]	Bliss excess (MCF7 (Breast Carcinoma))	Bliss excess [9]	Bliss excess [10]	Bliss excess [11]	Bliss excess (A172 (Glioblastoma))	Bliss excess [12]	Bliss excess [13]	Bliss excess [14]	Bliss excess [15]
CCN(CCO)CCCOc1ccc2c(Nc3cc(CC(=O)Nc4cccc(F)c4)[nH]n3)ncnc2c1 [AZD2811] + O=C(c1cc(Cc2n[nH]c(=O)c3ccccc23)ccc1F)N1CCN(C(=O)C2CC2)CC1 [Olaparib] (first compound max 1 µM, 7x7, partner max 10 µM)	0.015	0.0178	-0.018	0.004	-0.0004	0.0454	-0.0695	-0.0046	0.0076	0.0433	-0.0709	-0.0023	-0.0162	-0.0184	-0.0152	0.044	0.0623	0.0138	-0.0236	0.0754
CN(CCO)CC[C@H](CSc1ccccc1)Nc1ccc(S(=O)(=O)NC(=O)c2ccc(N3CCC([C@@H](O)c4ccccc4-c4ccc(Cl)cc4)CC3)cc2)cc1S(=O)(=O)C(F)(F)F [AZD4320] + C1CN(CCC1(C(=O)N[C@@H](CCO)C2=CC=C(C=C2)Cl)N)C3=NC=NC4=C3C=CN4 [Capivasertib] (first compound max 1 µM, 7x7, partner max 3 µM)	-0.0314	-0.0162	-0.054	-0.126	-0.0576	-0.0012	-0.0649	-0.0397	-0.0225	0.0056	-0.0206	-0.0383	-0.0644	-0.038	-0.038	-0.0588	0.0135	-0.0269	-0.0375	-0.0088
CN(CCO)CC[C@H](CSc1ccccc1)Nc1ccc(S(=O)(=O)NC(=O)c2ccc(N3CCC([C@@H](O)c4ccccc4-c4ccc(Cl)cc4)CC3)cc2)cc1S(=O)(=O)C(F)(F)F [AZD4320] + C=CCn1c(=O)c2cnc(Nc3ccc(N4CCN(C)CC4)cc3)nc2n1-c1cccc(C(C)(C)O)n1 [AZD1775] (first compound max 1 µM, partner max 1 µM)	-0.0111	0.0585	0.104	0.0906	-0.0183	0.0233	0.0474	0.0551	0.0447	0.0479	0.0814	-0.0008	-0.0164	-0.0175	-0.0845	-0.0101	-0.0156	0.0171	-0.0056	-0.0017
CN(CCO)CC[C@H](CSc1ccccc1)Nc1ccc(S(=O)(=O)NC(=O)c2ccc(N3CCC([C@@H](O)c4ccccc4-c4ccc(Cl)cc4)CC3)cc2)cc1S(=O)(=O)C(F)(F)F [AZD4320] + CN(C)CCCOc1ccc(-c2ccc3ncc4c(c3c2)n(C2CCOCC2)c(=O)n4C)cn1 [AZD0156] (first compound max 1 µM, 7x7, partner max 1 µM)	0.0124	0.0078	-0.0467	-0.0209	-0.09	0.0017	-0.044	-0.0334	-0.0477	0.0212	-0.0248	-0.051	-0.0351	-0.0248	-0.1	-0.0152	-0.0281	-0.0468	-0.0296	-0.0315
CN(CCO)CC[C@H](CSc1ccccc1)Nc1ccc(S(=O)(=O)NC(=O)c2ccc(N3CCC([C@@H](O)c4ccccc4-c4ccc(Cl)cc4)CC3)cc2)cc1S(=O)(=O)C(F)(F)F [AZD4320] + C[C@@H]1COCCN1C2=NC(=NC(=C2)C3(CC3)[S@](=N)(=O)C)C4=C5C=CNC5=NC=C4 [AZD6738] (first compound max 1 µM, 7x7, partner max 10 µM)	-0.0812	0.0002	-0.0426	0.0036	-0.0734	0.0303	-0.0094	-0.0249	-0.0432	-0.0222	-0.0144	-0.0145	0.0192	-0.0406	-0.0115	-0.0748	-0.0251	-0.0226	-0.0127	-0.0382
CN(CCO)CC[C@H](CSc1ccccc1)Nc1ccc(S(=O)(=O)NC(=O)c2ccc(N3CCC([C@@H](O)c4ccccc4-c4ccc(Cl)cc4)CC3)cc2)cc1S(=O)(=O)C(F)(F)F [AZD4320] + C[C@@H](Nc1cc(F)cc(F)c1)c1cc(C(=O)N(C)C)cc2c(=O)cc(N3CCOCC3)oc12 [AZD8186] (first compound max 1 µM, 7x7, partner max 3 µM)	0.0263	0.0841	0.0018	-0.0428	-0.0652	0.0515	-0.104	0.0521	0.0304	0.0441	0.0375	0.0057	-0.0294	0.016	-0.0224	0.0387	0.0327	0.0057	0.0112	0.0139
